Consider 4 compounds from article PMC6515380 (2019).

In test [1] the test system is wtTel26 (DNA, G4) TTAGGGTTAGGGTTAGGGTTAGGGTT
As to the kind of experiment: 1D 1H NMR titration. The conditions noted are these: 25 mM potassium phosphate, 70 mM KCl, pH 7, 25 °C, 100–250 µM DNA.

The test system is the same in test [2]. As to the kind of experiment: fluorescence titration. The conditions noted are these: 100 mM K+, 25 °C, pH 7; for Kd: 0.2 μM ligand titrated with DNA; for ΔGbindo(expt): 0.2 μM ligand, ΔG obtained from experimentally determined Kd.
[3] abbreviates: medium exchange, peak broadening, less specific.

The Kd is the free concentration of one partner at which half of the binding sites on the other are occupied at equilibrium, for simple one-to-one binding. In the case of `COc1ccc2cc3[n+](cc2c1OC)CCc1cc2c(cc1-3)OCO2`, the binding result in test [1] (setting [3]) was “yes”. For the same compound, in test [2], the equilibrium dissociation constant (Kd) came out at 1994 ± 46.1 nM and the “ΔGbindo(expt)” value is -7.82 ± 0.06 kcal/mol.
For `c1c2c(cc3c1OCO3)-c1cc3ccc4c(c3c[n+]1CC2)OCO4`, in that order: “yes”, 333 ± 5.7 nM and -8.89 ± 0.1 kcal/mol.
For `COc1cc2c(cc1OC)-c1cc3ccc(OC)c(OC)c3c[n+]1CC2`, in that order: “yes”, 740 ± 20.6 nM and -8.41 ± 0.01 kcal/mol.
Regarding `COc1cc2c(cc1OC)-c1cc3ccc4c(c3c[n+]1CC2)OCO4`, in test [1] (slow exchange, well-defined complex), the binding entry is listed as “yes”. Besides, in test [2], the Kd worked out at 16 ± 1.6 nM and the “ΔGbindo(expt)” value is -10.70 ± 0.02 kcal/mol.
